Laboratory results: patent US20220363680A1, “PROCESSES FOR THE SYNTHESIS OF VALBENAZINE” (Neurocrine Biosciences, Inc., priority 2019, published 2022)

Tests used:
[1] = Particle size distribution of manufacturing batches of the compound of Formula I; type: physicochemical; settings: crystalline Form I batches
Text: Manufacturing batches of(2R,3R,11bR)-3-isobutyl-9,10-dimethoxy-2,3,4,6,7,11b-hexahydro-1H-pyrido[2,1-a]isoquinolin-2-yl (S)-2-amino-3-methylbutanoate di(4-methylbenzenesulfonate) (i.e., the compound of Formula I) have been prepared in a similar manner as described herein and have the following particle size distribution characterizations, as shown in Table 3.
Four separate batches of (2R,3R,11bR)-3-Isobutyl-9,10-dimethoxy-2,3,4,6,7,11b-hexahydro-1H-pyrido[2,1-a]isoquinolin-2-yl (S)-2-amino-3-methylbutanoate di(4-methylbenzenesulfonate) were manufactured in a similar manner as described herein (i.e., Example 1) in compliance with applicable cGMPs for GLP use. Certain data are shown below in Table 10 for Example 1, Step E (i.e., Batch 073) and the four batches (i.e., Batches 084, 085, 086, and 087).

[2] = Stability of standard and sample solutions (4 mg/mL) for the HPLC method; type: physicochemical; settings: 4 mg/mL in DI water:acetonitrile 50:50 v/v, ambient laboratory conditions
Procedure: Diluent (DI Water:Acetonitrile, 50:50, v/v).
Note: Standard solutions are stable for 4 days at ambient laboratory conditions.
Working Standard Solution (4 mg/mL of compound of Formula I).
Note: Sample solutions are stable for 4 days at ambient laboratory conditions.
Sample Solution (4 mg/mL of compound of Formula I).

[3] = Table 3, listed as Batch 073, di(4-methylbenzenesulfonate)
[4] = Table 3, listed as Batch 084, di(4-methylbenzenesulfonate)
[5] = Table 3, listed as Batch 085, di(4-methylbenzenesulfonate)
[6] = Table 3, listed as Batch 086, di(4-methylbenzenesulfonate)
[7] = Table 3, listed as Batch 087, di(4-methylbenzenesulfonate)
[8] = Table 10, listed as Batch 073, di(4-methylbenzenesulfonate)
[9] = Table 10, listed as Batch 084, di(4-methylbenzenesulfonate)
[10] = Table 10, listed as Batch 085, di(4-methylbenzenesulfonate)
[11] = Table 10, listed as Batch 086, di(4-methylbenzenesulfonate)
[12] = Table 10, listed as Batch 087, di(4-methylbenzenesulfonate)

Particle size distribution, D10 ([1]; Table 3): 3 µm | Particle size distribution, D50 [1, 3]: 14 µm | Particle size distribution, D90 [1, 3]: 45 µm | Particle size distribution, D50 [1, 4]: 13 µm | Particle size distribution, D90 [1, 4]: 43 µm | Particle size distribution, D50 [1, 5]: 13 µm | Particle size distribution, D90 [1, 5]: 44 µm | Particle size distribution, D50 [1, 6]: 14 µm | Particle size distribution, D90 [1, 6]: 48 µm | Particle size distribution, D50 [1, 7]: 13 µm | Particle size distribution, D90 [1, 7]: 45 µm | Particle size distribution, D10 ([1]; Table 10): 3 μm | Particle size distribution, D50 [1, 8]: 14 μm | Particle size distribution, D90 [1, 8]: 45 μm | Particle size distribution, D50 [1, 9]: 13 μm | Particle size distribution, D90 [1, 9]: 43 μm | Particle size distribution, D50 [1, 10]: 13 μm | Particle size distribution, D90 [1, 10]: 44 μm | Particle size distribution, D50 [1, 11]: 14 μm | Particle size distribution, D90 [1, 11]: 48 μm | Particle size distribution, D50 [1, 12]: 13 μm | Particle size distribution, D90 [1, 12]: 45 μm | Time for which solutions are stable [2]: 4 days
Structure (SMILES): COc1cc2c(cc1OC)[C@H]1C[C@@H](OC(=O)[C@@H](N)C(C)C)[C@H](CC(C)C)CN1CC2 [Compound of Formula I, (2R,3R,11bR)-3-isobutyl-9,10-dimethoxy-2,3,4,6,7,11b-hexahydro-1H-pyrido[2,1-a]isoquinolin-2-yl (S)-2-amino-3-methylbutanoate di(4-methylbenzenesulfonate)]
